Data reported in BindingDB's records for doi:10.1021/np8001628 (University of Utah, 2008).
Structures can show the parent of a compound that is named as a salt.

Biological target: Transcription factor p65 (Human, UniProt Q04206)
Experiment: Inhibition of IL1-induced NF-kappaB P65 activation in human osteoarthritic primary chondrocytes preincubated 2 hrs before addition of IL1 by ELISA

Transcription factor p65, sequence (Q04206 whole entry): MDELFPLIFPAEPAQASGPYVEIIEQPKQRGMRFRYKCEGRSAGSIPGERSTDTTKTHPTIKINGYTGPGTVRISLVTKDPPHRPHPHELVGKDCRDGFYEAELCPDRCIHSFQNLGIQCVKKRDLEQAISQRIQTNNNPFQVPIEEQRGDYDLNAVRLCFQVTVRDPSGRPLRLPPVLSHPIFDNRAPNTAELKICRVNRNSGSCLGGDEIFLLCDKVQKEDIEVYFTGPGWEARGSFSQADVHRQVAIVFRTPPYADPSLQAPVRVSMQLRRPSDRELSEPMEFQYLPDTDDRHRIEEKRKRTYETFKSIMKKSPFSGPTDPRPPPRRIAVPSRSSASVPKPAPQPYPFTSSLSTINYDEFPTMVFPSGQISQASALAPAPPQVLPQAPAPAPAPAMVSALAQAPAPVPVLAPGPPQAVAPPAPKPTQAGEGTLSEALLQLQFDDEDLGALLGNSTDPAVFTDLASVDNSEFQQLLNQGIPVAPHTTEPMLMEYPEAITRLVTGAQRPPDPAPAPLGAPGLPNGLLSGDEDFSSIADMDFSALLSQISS

Compound | EC50 [µM]
C=C(C)C(CC[C@@H](C)[C@H]1CC[C@@]2(C)[C@@H]3C[C@H](OS(=O)(=O)O)[C@H]4[C@@H](O)[C@H](OS(=O)(=O)O)[C@@H](OS(=O)(=O)O)C[C@]4(C)C3=CC[C@]12C)C(C)C (some centres undefined) [Spheciosterol sulfate B] | 12
CC(C)C1(CC[C@@H](C)[C@H]2CC[C@@]3(C)[C@@H]4C[C@H](OS(=O)(=O)O)[C@H]5[C@@H](O)[C@H](OS(=O)(=O)O)[C@@H](OS(=O)(=O)O)C[C@]5(C)C4=CC[C@]23C)CC1C (some centres undefined) [Topsentiasterol sulfate E] | 12
C=C(C)C(CC)CC[C@@H](C)[C@H]1CC[C@@]2(C)[C@@H]3C[C@H](OS(=O)(=O)O)[C@H]4[C@@H](O)[C@H](OS(=O)(=O)O)[C@@H](OS(=O)(=O)O)C[C@]4(C)C3=CC[C@]12C (some centres undefined) [Spheciosterol sulfate A] | 12
C=C(C)C(C)(C)C(C)CC[C@@H](C)[C@H]1CC[C@@]2(C)[C@@H]3C[C@H](OS(=O)(=O)O)[C@H]4[C@@H](O)[C@H](OS(=O)(=O)O)[C@@H](OS(=O)(=O)O)C[C@]4(C)C3=CC[C@]12C (some centres undefined) [Spheciosterol sulfate C] | 12
